Measured values as given in patent publication US10189803B2, “Synthesis of therapeutic and diagnostic drugs centered on regioselective and stereoselective ring opening of aziridinium ions” (ILLINOIS INSTITUTE OF TECHNOLOGY, priority 2008, dated 2019).

System: HT29 cancer cells
Test: Fluorescence imaging of cellular uptake in live HT29 cancer cells
Type: cell-based, Human
Details: 50 μM, 0.5 h incubation
Excerpt: In order to visualize cellular uptake using fluorescence imaging, C-NE3TA was conjugated with an organic fluorescent moiety, NBD to produce C-NE3TA-NBD (FIG. 40). Thus, the starting material 15 was reacted with NBD-Cl to provide the fluorescent conjugate 16. t-Butyl groups in Compound 16 were removed by treating 4M HCl in 1,4-dioxane. C-NE3TA has the respective excitation and emission wavelength of 446 nm and 512 nm. Fluorescence and phase contrast images of control HT29 cells or HT29 cells incubated with C-NE3TA-NBD (50 μM) were obtained using a confocal microscope with a band-pass filter set at 436/20 nm (excitation) and 535/30 nm (emission). […] It was noted that the control HT29 colon cancer cells also emit auto-fluorescence at the wavelength of excitation. While polyaminocarboxylate NE3TA is too hydrophilic to enter the cancer cells, C-NE3TA-NBD containing liphophilic moieties, both benzyl and NBD group is proposed to penetrate into the cells resulting in the punctuate present in the cancer cells.
Fluorescence Imaging of live cancer cells. HT29 cancer cells were plated in glass cover slips which placed in 6-well plates, and were incubated with growth media in a humidified atmosphere with 5% CO2 at 37° C. overnight. Control cells or cells containing C-NE3TA-NBD (50 μM, H2O) were incubated with media for 0.5 h under 5% CO2 at 37° C. […]
Fluorescence imaging of live cancer cells. […]

O=C(O)CNC(Cc1ccc(Nc2ccc([N+](=O)[O-])c3nonc23)cc1)CN1CCN(CC(=O)O)CCN(CC(=O)O)CC1 (stereo not shown) [C-NE3TA-NBD, (4-Carboxymethyl-7-{2-(carboxymethyl-amino)-3-[4-(7-nitro-benzo[1,2,5]oxadiazol-4-ylamino)-phenyl]-propyl}-[1,4,7]triazonan-1-yl)-acetic acid]
cellular uptake by fluorescence imaging (in words): does accumulate in the HT29 cancer cells
